Patent publication US20090326441A1, “Ultrasonic Enhanced Microneedles” (AGENCY FOR SCIENCE ,TECHNOLOGY AND RESEARCH, priority 2006, published 2009)

Assay: Penetration of calcein through pig skin in Franz cell test device
Type: in vitro ADME
Settings: calcein solution 1 mmol, 0.523 mg/ml, receiving liquid PBS, 37° C., FIG. 9
Method: An injection device according to the present invention was constructed as described above. Testing was performed using calcein on pig skin, using the apparatus in FIG. 8. The graph of FIG. 9 presents the results of testing in three different situations: without enhancers, with hollow microneedles and using the method of the present invention, using microneedles with ultrasonic enhancement. With reference to FIG. 8, test device 10 comprises injection device 20 which has been applied to skin sample 30. Pig skin sample 30 communicates with a receiving liquid in receiving chamber 40. Arm 50 is provided to chamber 40 for inserting or withdrawing the receiving liquid. Chamber 40 is located in Franz cell 60, which comprises a water bath 65 and inlet and outlet ports 70 and 75 respectively for maintaining the receiving liquid at a constant temperature. Sample chamber 80 is provided for holding a test sample. […]
In order to conduct the test using test device 10, calcein solution (1 mmol, 0.523 mg/ml) was placed in chamber 80 so as to supply the solution to device 20, and a receiving liquid (PBS: phosphate buffered saline) was loaded into chamber 40. […] The concentration of calcein in the receiving liquid was then monitored by withdrawing aliquots from arm 50 and analysing them. […]

Question: For `O=C(O)CN(CC(=O)O)Cc1cc2c(cc1O)Oc1cc(O)c(CN(CC(=O)O)CC(=O)O)cc1C21OC(=O)c2ccccc21` [calcein], which “transport of calcein across the skin sample” value (microneedles and ultrasound (20 kHz, 0.5 Wcm^−2), compared with microneedles alone) is on record?
Answer: enhanced

Question: What about the “transport of calcein across the skin sample” value (microneedles, no ultrasound, compared with no microneedles (without enhancers)) of the same molecule?
Answer: improvement
